Reference: patent US5420142A, “Certain 3-formyl-1, 4-dihydropyridines and their pharmaceutical composition and use” (Bayer Aktiengesellschaft, priority 1991, dated 1995)

The compounds below were run on isolated guinea pig heart auricles (assay: Substance effects on the contraction amplitude of isolated guinea pig heart auricles). Conditions: Cavia porcellus, active compound concentration 10^-4 g/l, read-out: Contractility (% control).
Source text: The cardiac and vascular effects were found on isolated perfused guinea pig hearts. To this end, the hearts of guinea pigs of 250 to 350 g weight are used. The animals are killed by a blow to the head, the thorax is opened, and a metal cannula is tied into the exposed aorta. The heart is separated out of the thorax with the lungs and connected to the perfusion apparatus via an aortic cannula with continuous perfusion. The lungs are separated at the roots of the lung. The perfusion medium used is a Krebs-Henseleit solution (1) (118.5 mmol/l of NaCl, 4.75 mmol/l of KCl, 1.19 mmol/1 of KH2 PO4, 1.19 mmol/l of MgSO4, 25 mmol/l of NaHCO3, 0.013 mmol/l of Na2 EDTA), the CaCl2 content of which is 1.2 mmol/l. 10 mmol/l of glucose are added as an energy-producing substrate. The solution is filtered free from particles before perfusion. The solution is aerated with carbogen (95% O2, 5% CO2) to maintain the pH 7.4. The hearts are perfused with a constant flow (10 ml/min) at 32° C. by means of a peristaltic pump.
For the measurement of cardiac function, a liquid-filled latex balloon which is connected to a pressure transducer via a liquid column is inserted into the left ventricle through the left auricle, and the isovolumetric contractions are recorded on a rapid recorder (Opie, L., J. Physiol., 180 (1965), 529-541). The perfusion pressure is recorded by means of a pressure transducer which is connected to the perfusion system upstream of the heart. Under these conditions, a reduction in the perfusion pressure indicates a coronary dilation, and an increase or decrease in the left-ventricular contraction amplitude indicates […] in the heart contractility. The compounds according to the invention are perfused into the perfusion system in suitable dilutions Just upstream of the isolated heart.
Substance effects on the contraction amplitude of isolated guinea pig heart auricles at an active compound concentration of 10^-4 g/l.

| Structure (SMILES) | activation at 0.1 µg/mL [%] |
| --- | --- |
| CCOC(=O)C1=C(C)NC(C)=C(C=O)C1c1cccc2ncc(-c3ccccc3)cc12 (stereo not drawn) [Example 1, Ethyl 1,4-dihydro-2,6-dimethyl-3-formyl-4-(3-phenylquinolin-5-yl)-pyridine-5-carboxylate] | 32 |
| COC(=O)C1=C(C)NC(C)=C(C=O)C1c1cccc2ncc(-c3ccccc3)cc12 (stereo not drawn) [Example 4] | 41 |
| CC1=C(C=O)C(c2cccc3ncc(-c4ccccc4)cc23)C(C(=O)OC(C)C)=C(C)N1 (stereo not drawn) [Example 3] | 31 |
